Columns and labels:
Test in all cases: greenhouse post-emergence herbicidal test
Type in all cases: in vivo
Conditions in all cases: applied post-emergence, rates of application of 0.5 and 0.25 kg/ha, respectively
Chenopodium album = test system: Chenopodium album
Text: (§1) The seeds of the test plants were sown separately for each species. For the post-emergence treatment, the test plants were first grown to a height of 3 to 15 cm, depending on the plant habit, and only then treated with the active compounds which had been suspended or emulsified in water. For this purpose, the test plants were either sown directly and grown in the same containers, or they were first grown separately as seedlings and transplanted into the test containers a few days prior to treatment. The rate of application for the post-emergence treatment was 0.5 or 0.25 kg/ha of a.s. (active substance). Depending on the species, the plants were kept at 10-25° C. or 20-35° C. The test period extended over 2 to 4 weeks. During this time, the plants were tended, and their response to the individual treatments was evaluated. Evaluation was carried out using a scale from 0 to 100. 100 means no emergence of the plants, or complete destruction of at least the aerial parts, and 0 means no damage, or normal course of growth. The plants used in the greenhouse experiments belonged to the following species: [table]

Solanum nigrum = test system: Solanum nigrum
Text: as §1

Setaria viridis = test system: Setaria viridis
Text: as §1

Setaria faberi = test system: Setaria faberi
Text: as §1

Sinapis alba = test system: Sinapis alba
Text: as §1

Echinochloa crus-galli = test system: Echinochloa crus-galli
Text: as §1

Galium aparine = test system: Galium aparine
Text: as §1

Measured: herbicidal activity

Cc1c(C(=O)C2=C(Cl)C(C)(C)C(=O)C(C)(C)C2=O)ccc2c1S(=O)(=O)CCS2(=O)=O [Compound 4.1, 1-Chloro-2-[(8-methyl-2,3-dihydro-1,1,4,4-tetraoxobenz[1,4]dithiyn-7-yl)carbonyl]-4,4,6,6-tetramethyl-1-cyclohexene-3,5-dione]
very good activity: all assays above
